Drawing on paper PMC6155308 (Molecules : A Journal of Synthetic Chemistry and Natural …, 2017), this text covers Ki for 19 molecules.

As a reminder, the Ki is the equilibrium dissociation constant of an inhibitor or competing ligand from its target. Higher therefore signals a looser hold on the target.

For this experiment, the target named is T1, BpsCAβ (β-carbonic anhydrase) (Burkholderia pseudomallei, UniProt Q63Y17).
T1 construct: gene BPSL0372
T1 sequence (Q63Y17 1-256 limits assumed): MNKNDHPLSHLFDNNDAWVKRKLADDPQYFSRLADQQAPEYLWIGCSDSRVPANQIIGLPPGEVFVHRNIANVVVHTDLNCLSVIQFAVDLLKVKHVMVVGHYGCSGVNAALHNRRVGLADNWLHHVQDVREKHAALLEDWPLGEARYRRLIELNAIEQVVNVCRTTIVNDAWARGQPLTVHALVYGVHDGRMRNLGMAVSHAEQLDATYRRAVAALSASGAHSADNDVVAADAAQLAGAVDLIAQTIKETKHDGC
The experiment in a line: biochemical.
The molecule `CCN[C@H]1CN(CCCOC)S(=O)(=O)c2sc(S(N)(=O)=O)cc21` [BRZ, brinzolamide] had a Ki of 4.27 µM.
`Cc1ccc(-c2cc(C(F)(F)F)nn2-c2ccc(S(N)(=O)=O)cc2)cc1` [CLX, celecoxib] had a Ki of over 50 µM.
`NS(=O)(=O)c1cc(Cl)c(Cl)c(S(N)(=O)=O)c1` [DCP, dichlorophenamide] showed an inhibitory constant (Ki) of 0.529 µM.
To `NS(=O)(=O)c1ccc(S(=O)(=O)Nc2cccc3c(Cl)c[nH]c23)cc1` [IND, indisulam] belongs 4.37 µM; to `CC(=O)N=c1sc(S(N)(=O)=O)nn1C` [MZA, methazolamide], 0.186 µM.
Consider `CC1(C)O[C@@H]2[C@@H](CO[C@@]3(COS(N)(=O)=O)OC(C)(C)O[C@@H]23)O1` [TPM, topiramate], for which the Ki is over 50 µM.
Molecule `NS(=O)(=O)Cc1noc2ccccc12` [ZNS, zonisamide] came in with an inhibition constant Ki of 4.06 µM.
Molecule `Nc1cccc(S(N)(=O)=O)c1` [compound 1, metanilamide] showed an inhibition constant Ki of over 50 µM.
Next, `Nc1ccc(S(N)(=O)=O)cc1` [compound 2, sulfanilamide]: 3.89 µM; `NS(=O)(=O)c1cccc(S(N)(=O)=O)c1` [compound 3, 3]: 3.17 µM.
To `Cc1ccc(S(N)(=O)=O)cc1` [compound 4, 4] belongs over 50 µM; to `NCc1ccc(S(N)(=O)=O)cc1` [compound 5, 5], 3.9 µM; to `Nc1ccc(S(N)(=O)=O)cc1F` [compound 7, 7], over 50 µM.
To `Nc1ccc(S(N)(=O)=O)cc1Cl` [compound 8, 8] belongs over 50 µM.
`Nc1ccc(S(N)(=O)=O)cc1Br` [compound 9, 9] yielded a Ki of over 50 µM.
Molecule `NS(=O)(=O)c1cc(Cl)cc(Cl)c1O` [compound 10, 10] returned a Ki of 4.1 µM.
On to `Nc1nnc(S(N)(=O)=O)s1` [compound 13, deacetylated derivative of AAZ], for which the affinity, expressed as Ki, was 3.06 µM.
For the molecule `Cn1nc(S(N)(=O)=O)sc1=N` [compound 14, deacetylated derivative of MZA], the Ki turned out to be 2.5 µM.
Molecule `Nc1ccc(S(=O)(=O)Nc2nnc(S(N)(=O)=O)s2)cc1` [compound 20, aminobenzolamide] registered a Ki of 0.266 µM.
